# From publication PMC6234229, “The role of loops B and C in determining the potentiation of GABAA receptors by midazolam” (Pharmacology Research & Perspectives, 2018)
# Several values for one entry are separate records, joined by “and”; a condition that tells them apart may be missing. Equal entries are not always repeated.
# Columns and labels:
# [1] = target: α6(P161T)β2γ2 GABAA receptor (Homo sapiens, UniProt P18507+P47870+Q16445, P180T); conditions: GABA Hill fit
# Description: (§1) Human (Homo sapiens) GABAA subunits (α1‐6, β2, γ2s) were subcloned into pcDNA3.1+ vectors with a cytomegalovirus (CMV) promoter. The hβ2 and hα3 sequences were humanized rat (Rattus norvegicus) cDNA with amino acid substitutions made to match the human protein sequence. The α1‐3, α5, β2, and γ2s subunits were a generous gift from Neil L. Harrison (Columbia University Medical Center, NY). The α4 subunit was obtained from GenScript (Piscataway, NJ), and the α6 subunit was a generous gift from Robert L. McDonald (Vanderbilt University, TN). […]
# (§2) Human embryonic kidney cells containing the SV40 T‐antigen (HEK293T) were acquired from American Type Culture Collection (ATCC®, Manassas, VA), catalogue number, CRL3216. […] Experiments consisted of at least five cells recorded per day from at least two transfections across 3‐4 days to control for cell health and transfection efficiency. At least three cells expressing wild‐type receptors were recorded on days that mutant receptors were tested to provide a time‐matched expression control. […]
# (§3) Extracellular solution contained 161 mM NaCl, 3 mM KCl, 1 mM MgCl2, 1.5 mM CaCl2, 10 mM HEPES, and 6 mM D‐glucose, adjusted to pH 7.4 with NaOH (320‐330 mOsm). […] Whole‐cell currents were recorded at ‐60 mV, filtered at 100 Hz and sampled at 200 Hz with a MultiClamp 700B amplifier (Molecular Devices, LLC) and DigiData 1322A (Molecular Devices, LLC) digitizer. […]
# [2] = target: α6(R100H)β2γ2 GABAA receptor (Homo sapiens, UniProt P18507+P47870+Q16445, R119H); conditions: GABA Hill fit
# Description: as §1, §2, §3
# [3] = target: T1, α4(I204S)β2γ2 GABAA receptor (Homo sapiens, UniProt P18507+P47870+P48169, I239S); assay: Midazolam potentiation of EC10 GABA currents, whole-cell patch clamp, HEK293T; format: cell-based
# T1 construct: expressed in transfected cells; host or cells: HEK293T
# T1 sequence (P48169 36-554 I239S): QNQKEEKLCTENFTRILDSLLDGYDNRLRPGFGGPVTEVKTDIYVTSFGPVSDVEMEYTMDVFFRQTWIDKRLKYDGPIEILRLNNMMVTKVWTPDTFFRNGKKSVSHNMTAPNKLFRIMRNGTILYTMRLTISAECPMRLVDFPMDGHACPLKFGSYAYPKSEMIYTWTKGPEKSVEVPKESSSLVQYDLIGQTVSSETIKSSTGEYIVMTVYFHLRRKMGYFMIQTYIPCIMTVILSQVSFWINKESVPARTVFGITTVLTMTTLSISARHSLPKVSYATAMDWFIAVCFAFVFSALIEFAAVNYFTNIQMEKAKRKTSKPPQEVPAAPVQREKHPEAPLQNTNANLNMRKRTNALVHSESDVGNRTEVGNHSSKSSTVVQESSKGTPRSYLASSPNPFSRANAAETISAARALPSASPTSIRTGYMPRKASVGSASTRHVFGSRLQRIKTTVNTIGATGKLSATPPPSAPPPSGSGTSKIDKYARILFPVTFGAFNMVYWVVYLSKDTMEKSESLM
# T1 sequence (P47870 26-474 isoform P47870-1 limits assumed, stated change not applied): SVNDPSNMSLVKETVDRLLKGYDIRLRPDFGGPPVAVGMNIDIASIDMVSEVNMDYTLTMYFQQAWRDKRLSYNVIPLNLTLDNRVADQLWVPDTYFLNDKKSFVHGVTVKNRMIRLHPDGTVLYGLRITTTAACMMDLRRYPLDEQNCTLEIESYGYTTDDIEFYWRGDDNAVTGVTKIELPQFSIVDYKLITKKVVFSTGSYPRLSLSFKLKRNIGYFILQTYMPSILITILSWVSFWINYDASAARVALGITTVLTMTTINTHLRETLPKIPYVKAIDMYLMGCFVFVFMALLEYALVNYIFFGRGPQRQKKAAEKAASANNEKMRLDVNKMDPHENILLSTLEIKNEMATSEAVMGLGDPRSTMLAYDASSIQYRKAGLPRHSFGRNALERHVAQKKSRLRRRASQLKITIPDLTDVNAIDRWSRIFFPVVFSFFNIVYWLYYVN
# T1 sequence (P18507 40-467 isoform P18507-1 limits assumed, stated change not applied): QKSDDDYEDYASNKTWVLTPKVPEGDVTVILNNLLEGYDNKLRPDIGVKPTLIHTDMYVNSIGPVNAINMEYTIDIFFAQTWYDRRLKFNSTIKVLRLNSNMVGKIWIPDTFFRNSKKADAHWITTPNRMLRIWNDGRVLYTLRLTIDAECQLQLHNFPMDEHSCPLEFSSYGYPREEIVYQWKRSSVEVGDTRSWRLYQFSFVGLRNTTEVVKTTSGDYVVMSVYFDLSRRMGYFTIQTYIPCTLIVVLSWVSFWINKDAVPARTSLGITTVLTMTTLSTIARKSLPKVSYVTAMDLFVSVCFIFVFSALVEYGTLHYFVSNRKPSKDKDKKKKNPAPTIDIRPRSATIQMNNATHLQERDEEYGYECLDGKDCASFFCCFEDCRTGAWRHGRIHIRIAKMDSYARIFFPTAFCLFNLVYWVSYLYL
# Description: (§4) Human (Homo sapiens) GABAA subunits (α1‐6, β2, γ2s) were subcloned into pcDNA3.1+ vectors with a cytomegalovirus (CMV) promoter. The hβ2 and hα3 sequences were humanized rat (Rattus norvegicus) cDNA with amino acid substitutions made to match the human protein sequence. The α1‐3, α5, β2, and γ2s subunits were a generous gift from Neil L. Harrison (Columbia University Medical Center, NY). The α4 subunit was obtained from GenScript (Piscataway, NJ), and the α6 subunit was a generous gift from Robert L. McDonald (Vanderbilt University, TN). All point mutations (listed in Figure 1C) were introduced using the QuikChange Lightening site‐directed mutagenesis kit (Agilent Technologies, Santa Clara, CA) according to the manufacturer's instructions and were confirmed by sequencing (Eurofins MWG Operon, Louisville, KY).
# (§5) Human embryonic kidney cells containing the SV40 T‐antigen (HEK293T) were acquired from American Type Culture Collection (ATCC®, Manassas, VA), catalogue number, CRL3216. HEK293T cells were maintained at 37°C and 5% CO2 in Eagle Minimum Essential Medium (MEM) supplemented with 5% fetal bovine serum (Atlanta Biologicals Inc., Flowery Branch, GA), 40 μM L‐glutamine, 100 U/mL penicillin and 0.1 mM streptomycin. Cells were passaged regularly when they reached 70% confluency using trypsin. Cells were not passaged more than 22 times. New cells were revived from frozen stocks at passage 2‐4. Cells used for in vitro electrophysiology experiments were grown on poly‐D‐lysine‐coated glass coverslips (No.2, VWR, Radnor, PA) and transfected with X‐tremeGENE (Roche Diagnostics, Indianapolis, IN) with the desired receptor subunit cDNAs at a 1:1:1 ratio to express αxβ2γ2s receptors (2 μg total cDNA) and with 0.5 μg green fluorescent protein (GFP) as an expression marker. The γ2s incorporation into receptors was tested with zinc inhibition assays regularly.24 Patch clamp experiments were performed on cells at 24‐72 hours post‐transfection. All experiments were performed at 22°C. Experiments consisted of at least five cells recorded per day from at least two transfections across 3‐4 days to control for cell health and transfection efficiency. At least three cells expressing wild‐type receptors were recorded on days that mutant receptors were tested to provide a time‐matched expression control. All reagents were purchased from Sigma‐Aldrich (St. Louis, MO) unless otherwise stated.
# (§6) Extracellular solution contained 161 mM NaCl, 3 mM KCl, 1 mM MgCl2, 1.5 mM CaCl2, 10 mM HEPES, and 6 mM D‐glucose, adjusted to pH 7.4 with NaOH (320‐330 mOsm). […] The perfusion system was controlled by protocols written in pClamp 9 (Molecular Devices, LLC., Sunnyvale, CA). Whole‐cell currents were recorded at ‐60 mV, filtered at 100 Hz and sampled at 200 Hz with a MultiClamp 700B amplifier (Molecular Devices, LLC) and DigiData 1322A (Molecular Devices, LLC) digitizer. […] Cells were recorded with the midazolam protocol no more than two times to avoid desensitization and incomplete washout or irreversible modulation.
# (§7) Recordings were analyzed using MATLAB (Math Works, Inc., Natick, MA). […] The maximum peak current, EC50 and Hill coefficient were estimated for assays from each cell. When Hill parameters are estimated from whole‐cell recordings, the changes in the parameters across receptor conditions can be ascribed to the following changes in receptor physiology. Changes in maximum current can be due to changes in the single‐channel conductance or the rate of desensitization. Changes in cell surface receptor expression can cause minor changes in maximum current, but are unlikely to occur in the time course of our experimental protocol. […] More often minor changes in the Hill coefficient are attributed to the altered homogeneity in the receptor population expressed by the HEK293T cell. For example, a shallower Hill coefficient could be caused by a shift in the population of receptors from mostly αβγ receptors to a combination of both αβ and αβγ receptors.
# α4β2γ2 GABAA receptor = target: T2, α4β2γ2 GABAA receptor (Homo sapiens, UniProt P18507+P47870+P48169); assay: as above; format: cell-based; conditions: for Midazolam potentiation (%): α4β2γ2
# T2 construct: expressed in transfected cells; host or cells: HEK293T
# Description: as §4, §5, §6, §7
# [4] = target: T3, α1(T163P)β2γ2 GABAA receptor (Homo sapiens, UniProt P14867+P18507+P47870, T190P); assay: as above; format: cell-based
# T3 construct: expressed in transfected cells; host or cells: HEK293T
# Description: as §4, §5, §6, §7
# [5] = target: T4, α5(S209I)β2γ2 GABAA receptor (Homo sapiens, UniProt P18507+P31644+P47870, S240I); assay: as above; format: cell-based
# T4 construct: expressed in transfected cells; host or cells: HEK293T
# Description: as §4, §5, §6, §7
# [6] = target: T5, α1(S206I)β2γ2 GABAA receptor (Homo sapiens, UniProt P14867+P18507+P47870, S233I); assay: as above; format: cell-based
# T5 construct: expressed in transfected cells; host or cells: HEK293T
# T5 sequence (P14867 28-456 S233I): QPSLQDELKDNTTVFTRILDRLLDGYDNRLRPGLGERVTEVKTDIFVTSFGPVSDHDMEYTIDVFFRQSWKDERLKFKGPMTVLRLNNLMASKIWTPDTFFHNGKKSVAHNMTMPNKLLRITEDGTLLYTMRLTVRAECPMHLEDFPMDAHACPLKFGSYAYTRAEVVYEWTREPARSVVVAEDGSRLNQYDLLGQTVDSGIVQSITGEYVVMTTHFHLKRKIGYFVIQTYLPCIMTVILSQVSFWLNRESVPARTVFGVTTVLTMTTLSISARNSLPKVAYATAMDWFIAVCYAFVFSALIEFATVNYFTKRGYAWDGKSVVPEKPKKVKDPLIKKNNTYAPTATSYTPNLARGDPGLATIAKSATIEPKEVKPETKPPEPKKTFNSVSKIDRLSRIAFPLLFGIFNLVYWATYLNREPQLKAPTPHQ
# T5 sequence (P47870 25-512 limits assumed, stated change not applied): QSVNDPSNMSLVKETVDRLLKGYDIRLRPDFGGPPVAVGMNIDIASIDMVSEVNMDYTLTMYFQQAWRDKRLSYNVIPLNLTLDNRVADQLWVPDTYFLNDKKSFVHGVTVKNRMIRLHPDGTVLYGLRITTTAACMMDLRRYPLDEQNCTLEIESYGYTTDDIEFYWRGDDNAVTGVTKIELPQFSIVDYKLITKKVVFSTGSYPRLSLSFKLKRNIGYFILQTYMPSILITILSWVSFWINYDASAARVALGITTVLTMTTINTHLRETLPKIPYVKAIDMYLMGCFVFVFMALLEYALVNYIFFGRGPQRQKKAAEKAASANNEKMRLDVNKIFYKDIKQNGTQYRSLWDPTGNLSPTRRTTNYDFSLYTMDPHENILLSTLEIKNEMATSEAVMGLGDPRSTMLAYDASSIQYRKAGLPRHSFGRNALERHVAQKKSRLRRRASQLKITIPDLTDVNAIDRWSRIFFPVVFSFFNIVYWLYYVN
# T5 sequence (P18507 40-467 isoform P18507-1 limits assumed, stated change not applied): as the sequence (P18507 40-467 isoform P18507-1 limits assumed, stated change not applied) above
# Description: as §4, §5, §6, §7
# [7] = target: T6, α1(H102R)β2γ2 GABAA receptor (Homo sapiens, UniProt P14867+P18507+P47870, H129R); assay: as above; format: cell-based
# T6 construct: expressed in transfected cells; host or cells: HEK293T
# T6 sequence (P14867 28-456 H129R): as the sequence (P14867 28-456 S233I) above, with H102R, I206S counted along it
# T6 sequence (P47870 25-512 limits assumed): as the sequence (P47870 25-512 limits assumed, stated change not applied) above
# T6 sequence (P18507 40-467 isoform P18507-1 limits assumed, stated change not applied): as the sequence (P18507 40-467 isoform P18507-1 limits assumed, stated change not applied) above
# Description: as §4, §5, §6, §7
structure (smiles),measurement,setting,value
"NCCCC(=O)O [GABA, γ‐aminobutyric acid]",Max Current (pA),[1],-3540 ± 290.2 pA
same,Max Current (pA),[2],-2902 ± 349.5 pA
Cc1ncc2n1-c1ccc(Cl)cc1C(c1ccccc1F)=NC2 [midazolam],responsiveness to midazolam potentiation,[3],failed to convey any notable midazolam potentiation
same,Midazolam potentiation (%),[3]; 10 nM MDZ + EC10 GABA,9.47 ± 1.93%
same,Midazolam potentiation (%),[3]; 50 nM MDZ + EC10 GABA,13.23 ± 1.68%
same,Midazolam potentiation (%),[3]; 100 nM MDZ + EC10 GABA,16.59 ± 1.59%
same,Midazolam potentiation (%),[3]; 500 nM MDZ + EC10 GABA,20.16 ± 2.01%
same,Midazolam potentiation (%),[3]; 1000 nM MDZ + EC10 GABA,23.95 ± 2.33%
same,Midazolam potentiation (%),α4β2γ2 GABAA receptor; 10 nM MDZ + EC10 GABA,10.98 ± 3.61%
same,Midazolam potentiation (%),α4β2γ2 GABAA receptor; 50 nM MDZ + EC10 GABA,13.30 ± 4.65%
same,Midazolam potentiation (%),α4β2γ2 GABAA receptor; 100 nM MDZ + EC10 GABA,15.15 ± 4.85%
same,Midazolam potentiation (%),α4β2γ2 GABAA receptor; 500 nM MDZ + EC10 GABA,15.98 ± 5.42%
same,Midazolam potentiation (%),α4β2γ2 GABAA receptor; 1000 nM MDZ + EC10 GABA,17.89 ± 4.82%
same,responsiveness to midazolam potentiation,α4β2γ2 GABAA receptor; wildtype α4β2γ2,no notable midazolam potentiation
same,EC50,[4],61.1 ± 3.72 nM
same,Midazolam potentiation (%),"[4]; 10 nM MDZ + EC10 GABA, α1(T163P)",14.19 ± 4.15%
same,Midazolam potentiation (%),"[4]; 50 nM MDZ + EC10 GABA, α1(T163P)",49.96 ± 8.44%
same,Midazolam potentiation (%),"[4]; 100 nM MDZ + EC10 GABA, α1(T163P)",96.68 ± 15.00%
same,Midazolam potentiation (%),"[4]; 500 nM MDZ + EC10 GABA, α1(T163P)",124.27 ± 18.98%
same,Midazolam potentiation (%),"[4]; 1000 nM MDZ + EC10 GABA, α1(T163P)",123.00 ± 18.99%
same,Max potentiation (%),"[4]; α1(T163P), Hill fit, midazolam 10-1000 nM + EC10 GABA",127.7 ± 16.0 %
same,Hill coefficient,"[4]; α1(T163P), midazolam Hill fit",2.113 ± 0.154
same,EC50,[5],65.4 ± 2.76 nM
same,Midazolam potentiation (%),"[5]; 10 nM MDZ + EC10 GABA, α5(S209I)",15.95 ± 6.58%
same,Midazolam potentiation (%),"[5]; 50 nM MDZ + EC10 GABA, α5(S209I)",62.43 ± 11.51%
same,Midazolam potentiation (%),"[5]; 100 nM MDZ + EC10 GABA, α5(S209I)",127.16 ± 19.87%
same,Midazolam potentiation (%),"[5]; 500 nM MDZ + EC10 GABA, α5(S209I)",168.94 ± 23.17%
same,Midazolam potentiation (%),"[5]; 1000 nM MDZ + EC10 GABA, α5(S209I)",170.92 ± 25.92%
same,increase of maximum midazolam potentiation relative to wildtype,[5]; α5(S209I) vs α5β2γ2,approximately 63%
same,Max potentiation (%),"[5]; α5(S209I), Hill fit, midazolam 10-1000 nM + EC10 GABA",175.1 ± 26.6%
same,Hill coefficient,"[5]; α5(S209I), midazolam Hill fit",2.232 ± 0.334
same,EC50,[6],59.8 ± 4.11 nM
same,Midazolam potentiation (%),"[6]; 10 nM MDZ + EC10 GABA, α1(S206I)",13.37 ± 5.70%
same,Midazolam potentiation (%),"[6]; 50 nM MDZ + EC10 GABA, α1(S206I)",44.00 ± 10.96%
same,Midazolam potentiation (%),"[6]; 100 nM MDZ + EC10 GABA, α1(S206I)",80.14 ± 17.04%
same,Midazolam potentiation (%),"[6]; 500 nM MDZ + EC10 GABA, α1(S206I)",107.07 ± 22.95%
same,Midazolam potentiation (%),"[6]; 1000 nM MDZ + EC10 GABA, α1(S206I)",108.21 ± 24.13%
same,Max potentiation (%),"[6]; α1(S206I), Hill fit, midazolam 10-1000 nM + EC10 GABA",135.8 ± 23.8% and 135.8 ± 23.78 %
same,Hill coefficient,"[6]; α1(S206I), midazolam Hill fit",1.568 ± 0.199
same,responsiveness to midazolam potentiation,[7],abolished the ability of receptors to respond to midazolam potentiation
same,Midazolam potentiation (%),[7]; 10 nM MDZ + EC10 GABA,8.10 ± 3.48%
same,Midazolam potentiation (%),[7]; 50 nM MDZ + EC10 GABA,13.07 ± 4.69%
same,Midazolam potentiation (%),[7]; 100 nM MDZ + EC10 GABA,16.99 ± 4.42%
same,Midazolam potentiation (%),[7]; 500 nM MDZ + EC10 GABA,26.78 ± 5.31%
same,Midazolam potentiation (%),[7]; 1000 nM MDZ + EC10 GABA,28.87 ± 6.18%
